Results reported in patent US12172976B2, “Delocalized lipophilic cation compounds and methods of use thereof” (The Board of Trustees of the Leland Stanford Junior …, priority 2019, dated 2024).

Experiments:
[1] = Fluorescence quantum yield against Rhodamine 6G; format: physicochemical; conditions: in ethanol, Rhodamine 6G as reference
Experimental: The quantum yield of compounds (1) through (11) was measured in ethanol using Rhodamine 6G as a reference.
The fluorescence quantum yields of the compounds were determined using the formula (ϕ=ϕs(Fx/Fs) (As/Ax), where ϕ is quantum yield, F is the integrated area under the corrected emission spectrum, and A is the absorbance at the excitation wavelength; the subscripts x and s refer to F16s and the standard, respectively. Rhodamine 6G (OF 95%) in ethanol was used as the standard. All compounds and Rhodamine 6G were dissolved in ethanol in 5 different concentrations with the absorbance lower than 0.1 at 425 nm. The corresponding 5 different fluorescences of the compounds and Rhodamine 6G were excited at 425 nm and the emission spectra from 450 nm to 650 nm were obtained for the following integrated area measurement. All data was analyzed using Origin Pro 9.0 software (OriginLab, Northampton, Massachusetts, USA) to get the compounds' final quantum yield.

[2] = Photostability under continuous excitation; format: physicochemical; conditions: 10 μM in water, continuously excited for 50 mins
Experimental: A 75 W Xenon arc lamp (Hamamatsu, San Jose, California, USA) with 420-470 nm bond pass filter (MF445-45, Thorlabs, Newton, New Jersey, USA) was used as the light source for the F16 derivatives, Rhodamine 6G, and Mitotracker® Green. Analogously, a 540-580 nm bond pass filter (MF559-34, Thorlabs, Newton, New Jersey, USA) was used to excite Mitotracker Red. All the dyes were dissolved in water at a 10 μM concentration in 700 μL micro quartz cuvettes (10 mm, Sigma-Aldrich, St. Louis, MO, USA). They were continuously excited for 50 mins. During this period, the fluorescence intensity was measured every 5 mins at 525 nm (F16s, Rhodamine 6G, Mitotracker Green) or 600 nm (Mitotracker Red). Relative fluorescence intensity change was monitored over time.

[3] = tested on: bladder cancer T24 cells, non-small cell lung cancer (NSCLC) H838 cells, normal HIN-3T3 cells; assay: In vitro cytotoxicity, anti-tumor activity and selectivity against normal cells; format: cell-based; conditions: Homo sapiens, NCI-H838, 72 h, 3 days
Experimental: (§1) The cytotoxicity of compounds (1) through (11) was tested in vitro with bladder cancer T24 cells, non-small cell lung cancer (NSCLC) H838 cells, and normal HIN-3T3 cells (FIG. 4). All test cell lines were incubated in 96-well plates overnight at a density of 3000 cells/well. The culture medium was replaced with 200 μL of culture medium, into which the testing compound was dispersed at various concentrations (1.95-500 μM). After incubating for 3 days, the viable cell numbers were checked and directly counted under microscopy (10×). A minimum of 1 mm×1 mm area was counted from each of at least three widely separated regions of cell culture. The cell proliferation rate was calculated by the following formula: cell proliferation rate (%)=(average cell number of sample wells/average cell number of control wells)×100%. The intact culture medium was evaluated as a control.

[4] = UV absorbance of the compounds; format: physicochemical; conditions: 31 μM in water
Experimental: The absorbance and fluorescence of delocalized lipophilic cation compounds (1) through (11) were measured. UV absorbance of the compounds was recorded on an Agilent 8453 UV spectrophotometer at a concentration of 31 μM in water. Fluorescence was recorded on a Fluoromax-3 spectrafluorometer (Jobin Yvon) at a concentration of 7.8 μM in water.

mitochondria = assay: Mitochondrial targeting, fluorescence microscopy of stained cells; format: cell-based; conditions: NIH-353, H838, and T24 cell lines
Experimental: The mitochondrial targeting properties of compounds (1) through (11) were tested. 3 μM compounds were added to cells grown in a MatTek glass-bottom culture dishes (Ashland, Massachusetts) for 1 h and washed with PBS (phosphate-buffered saline) three times. After replacement of the medium, cells were imaged using a fluorescent microscope (Zeiss) with a 63× oil or 20× objective lens (excited in the GFP channel).
Mitotracker@ Red (Molecular Probes) and Hoechst (Thermo Scientific) were added to the medium to stain the mitochondria and nuclei, following the manufacturer's procedures. Cells were photographed using a 63× oil or 20× objective lens.

H838 cells = assay: Dependence of mitochondrial accumulation on mitochondrial membrane potential; format: cell-based
Experimental: To examine whether the mitochondrial membrane potential (ΔΨm) causes the accumulation of delocalized lipophilic cation compounds in mitochondria, H838 cells were preincubated with medium containing high concentrations of K^+ ions (i.e. 137 mM), to depolarize the mitochondrial membrane, or low concentrations of K^+ ions (i.e. 3 mM). Next, 3 μM of compound (3) was added and the cells were incubated for 30 minutes.

bladder cancer T24 cells = assay: In vitro cytotoxicity, T24; format: cell-based; conditions: Homo sapiens, T-24, 72 h, 3 days
Experimental: as §1

[5] = tested on: non-small cell lung cancer (NSCLC) H838 cells; assay: In vitro cytotoxicity, H838; format: cell-based; conditions: Homo sapiens, NCI-H838, 72 h, 3 days
Experimental: as §1

H2228 cell line = assay: In vitro cytotoxicity, H2228; format: cell-based
[6] = tested on: NSCLC cell lines HCC827, H838, HCC4006, H1693, H2030, H2228, A549, H1437, H1944; assay: Cytotoxicity in nine lung cancer cell lines; format: cell-based; conditions: all nine NSCLC cell lines
[7] = tested on: subcutaneous HCC827 tumor; assay: In vivo fluorescent imaging of mice bearing HCC827 tumors; parameters: species or system nude mice; conditions: 15 mg/kg intravenous
Experimental: In vivo studies on the effect of compound (3) on the tumor growth and body mass of a mouse model were conducted. Female athymic nude mice (nu/nu) from 4-6 weeks old were obtained from Charles River Laboratories (Boston, MA, USA) and kept under sterile conditions. 5×10^6 human lung adenocarcinoma HCC827 cells suspended in 150 μL of PBS were inoculated subcutaneously in the right shoulder of the nude mice. When the tumors reached 3˜5 mm in diameter, the tumor bearing mice were administered i.v. with compound (3) (dissolved in 150 μL PBS, with 2 μL DMSO) at 15 mg/kg on days 1, 3, 5, 7, 9, 11, 13, 15, 17, 19, 21. Correspondingly, untreated tumor-bearing mice serving as controls were administered i.v. with 150 μL 1×PBS pH 7.4 (with 2 μL DMSO) on the same days as the treated mice. Ten mice were used for each group. Length and width of the elliptical tumors were measured by Vernier caliper after every intravenous injection. Modified ellipsoid formula ½ (Length×Width^2) was used to calculate the tumor size. The tumor growth was calculated with the ratio of final volume (FV) minus initial volume (IV) to initial volume (IV). In vivo fluorescent imaging was taken 40 minutes and 2 hours after the injection of compound (3) 15 mg/kg. IVIS spectrum instrument was used. Excitation wavelength was set at 450 nm. Collection wavelength was set at 550 nm, using a 3s acquisition time. […]

[8] = tested on: human lung adenocarcinoma HCC827 xenograft; assay: Tumor growth and body weight in the HCC827 xenograft; format: in vivo, nude mice
Experimental: In vivo studies on the effect of compound (3) on the tumor growth and body mass of a mouse model were conducted. Female athymic nude mice (nu/nu) from 4-6 weeks old were obtained from Charles River Laboratories (Boston, MA, USA) and kept under sterile conditions. 5×10^6 human lung adenocarcinoma HCC827 cells suspended in 150 μL of PBS were inoculated subcutaneously in the right shoulder of the nude mice. When the tumors reached 3˜5 mm in diameter, the tumor bearing mice were administered i.v. with compound (3) (dissolved in 150 μL PBS, with 2 μL DMSO) at 15 mg/kg on days 1, 3, 5, 7, 9, 11, 13, 15, 17, 19, 21. Correspondingly, untreated tumor-bearing mice serving as controls were administered i.v. with 150 μL 1×PBS pH 7.4 (with 2 μL DMSO) on the same days as the treated mice. Ten mice were used for each group. Length and width of the elliptical tumors were measured by Vernier caliper after every intravenous injection. Modified ellipsoid formula ½ (Length×Width^2) was used to calculate the tumor size. The tumor growth was calculated with the ratio of final volume (FV) minus initial volume (IV) to initial volume (IV).

carcinoma cell = assay: Flow cytometry of carcinoma cell growth; format: cell-based

Q: Which quantum yield [1] does the source give for `Cn1cc(/C=C/c2cc[n+](C)cc2)c2cc(F)ccc21` [(1)] here?
A: around 12%

Q: And the photostability [2]?
A: bleached relatively easily

Q: For `C[n+]1ccc(/C=C/c2c[nH]c3c2ccc2ccccc23)cc1` [(2)], which quantum yield [1] is on record?
A: around 12%

Q: What about the IC50 [3] of the same compound?
A: 360 to 6200 nM

Q: For `C[n+]1ccc(/C=C/c2c[nH]c3ccc(Br)cc23)cc1` [(5)], which “absorption peak / absorption maxima” value [4] is on record?
A: about 450 nm

Q: What about the IC50 [3] of the same compound?
A: 360 to 6200 nM

Q: For `C[n+]1ccc(/C=C/c2c[nH]c3ccc(F)cc23)cc1` [(7)], which quantum yield [1] is on record?
A: around 20%

Q: With `C[n+]1ccc(/C=C/c2c(Cl)[nH]c3ccccc23)cc1` [(8)] as the compound, how does the photostability [2] read?
A: bleached relatively easily

Q: Which results are given for `Cc1ccc2[nH]c(C)c(/C=C/c3cc[n+](C)cc3)c2c1` [(9)]?
A: absorption peak / absorption maxima [4]: about 450 nm; quantum yield [1]: around 20%; photostability [2]: bleached relatively easily

Q: Which results are given for `Cc1cc(Br)cc2c(/C=C/c3cc[n+](C)cc3)c[nH]c12` [Compound (3)]?
A: quantum yield [1]: around 20%; colocalization with MitoTrack (mitochondria): colocalization; accumulation in the mitochondria, low K+ (H838 cells; 3 μM, 30 minutes, preincubation with 3 mM K+): more accumulation; accumulation in the mitochondria, high K+ (H838 cells; 3 μM, 30 minutes, preincubation with 137 mM K+): less accumulation; mitochondrial staining after addition of FCCP (H838 cells; FCCP added to the cells): immediately decayed and diffused into the cytoplasm; IC50 [3]: 360 to 6200 nM; IC50 (bladder cancer T24 cells): 820 nM; IC50 [5]: 360 nM; anti-cancer cell to anti-normal cell ratio (H2228 cell line; H2228 against 3T3): around 225; IC50 (H2228 cell line; Homo sapiens, NCI-H2228, H2228 cell line): 48.9 nM; ATCA (antitumor activity) in NSCLC cell lines [6]: impressively high ATCA; tumor to background ratio ([7]; 2 h post injection): ~2; organ accumulation ([7]; compared with liver, spleen, heart, lung, and brain): Tumor, kidney, bone, stomach, bowel, pancreas and skin accumulated more; tumor volume compared to PBS treated group ([8]; 15 mg/kg i.v. on days 1 to 21 every other day, 21 days PI, p=0.0426): decreased dramatically; bodyweight between control and treated group ([8]; 15 mg/kg i.v., p=0.477): no significant difference; tumor pathologic section H&E staining ([8]; HCC827 tumor of treated mice): caused tumor inflammatory cell infiltration, fibrous tissue proliferation, and cell apoptosis; carcinoma cell growth by flow cytometry (carcinoma cell): inhibited carcinoma cell growth in a time-dependent manner

Q: With `C[n+]1ccc(/C=C/c2c[nH]c3ccc(C#N)cc23)cc1` [Compound (4)] as the compound, how does the quantum yield [1] read?
A: 49.1%

Q: What about the IC50 [3] of the same compound?
A: 360 to 6200 nM
